Assay results from PubChem BioAssay (NCI).
≈ marks a conversion by molar mass, not a printed value.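 The compound was tested at five concentrations on cells cultured in 96-well plates, with a 48-hour exposure period. At the GI50, growth is halved. At the TGI there is no net growth.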

Experiments:
Experiment in all cases: NCI anticancer screen, dose series, 48 h
UO-31 renal = tested on: UO-31 renal
COLO 205 colon = tested on: COLO 205 colon
BT-549 breast = tested on: BT-549 breast
HOP-92 NSCLC = tested on: HOP-92 NSCLC
SK-OV-3 ovarian = tested on: SK-OV-3 ovarian
A498 renal = tested on: A498 renal
MOLT-4 leukemia = tested on: MOLT-4 leukemia
M14 melanoma = tested on: M14 melanoma
SR leukemia = tested on: SR leukemia
UACC-62 melanoma = tested on: UACC-62 melanoma
SK-MEL-28 melanoma = tested on: SK-MEL-28 melanoma
SN12C renal = tested on: SN12C renal
OVCAR-5 ovarian = tested on: OVCAR-5 ovarian
NCI-H23 lung = tested on: NCI-H23 lung
SF-539 CNS = tested on: SF-539 CNS
MDA-MB-435 = tested on: MDA-MB-435
NCI-H226 lung = tested on: NCI-H226 lung
ACHN renal = tested on: ACHN renal
OVCAR-3 ovarian = tested on: OVCAR-3 ovarian
MDA-MB-231 breast = tested on: MDA-MB-231 breast
HCT-116 colon = tested on: HCT-116 colon
CAKI-1 renal = tested on: CAKI-1 renal
PC-3 prostate = tested on: PC-3 prostate
786-0 renal = tested on: 786-0 renal
UACC-257 melanoma = tested on: UACC-257 melanoma
MALME-3M melanoma = tested on: MALME-3M melanoma
MCF7 breast = tested on: MCF7 breast
KM12 colon = tested on: KM12 colon
HOP-62 NSCLC = tested on: HOP-62 NSCLC
TK-10 renal = tested on: TK-10 renal
SK-MEL-5 melanoma = tested on: SK-MEL-5 melanoma
SF-295 CNS = tested on: SF-295 CNS
U251 CNS = tested on: U251 CNS
SW-620 colon = tested on: SW-620 colon
SK-MEL-2 melanoma = tested on: SK-MEL-2 melanoma
SF-268 CNS = tested on: SF-268 CNS
NCI-H460 lung = tested on: NCI-H460 lung
RPMI-8226 leukemia = tested on: RPMI-8226 leukemia
CCRF-CEM leukemia = tested on: CCRF-CEM leukemia
OVCAR-8 ovarian = tested on: OVCAR-8 ovarian

SMILES: N#Cc1cc2c(N)ncnc2nc1N1CCCC1
- GI50 (UO-31 renal): 45.7 µg/mL
- GI50 (COLO 205 colon): 83.6 µg/mL (≈ 348 µM)
- GI50 (BT-549 breast): 49.3 µg/mL
- GI50 (HOP-92 NSCLC): 57.2 µg/mL (≈ 238 µM)
- GI50 (SK-OV-3 ovarian): 54.4 µg/mL
- GI50 (A498 renal): 36.9 µg/mL (≈ 154 µM)
- GI50 (MOLT-4 leukemia): 85.2 µg/mL (≈ 355 µM)
- GI50 (M14 melanoma): 48.4 µg/mL
- GI50 (SR leukemia): 66.4 µg/mL (≈ 276 µM)

SMILES: CC(=O)O[C@H]1CC[C@]2(C)[C@H]3CC=C4[C@@H]5CC(C)(C)CC[C@]5(C(=O)NCCNCCNCCN)CC[C@@]4(C)[C@]3(C)CC[C@H]2C1(C)C
- GI50 (UACC-62 melanoma): 1740 nM
- TGI (UACC-62 melanoma): 3180 nM
- GI50 (SK-MEL-28 melanoma): 1740 nM
- TGI (SK-MEL-28 melanoma): 3210 nM
- GI50 (SN12C renal): 1780 nM
- TGI (SN12C renal): 3370 nM
- GI50 (OVCAR-5 ovarian): 1670 nM
- TGI (OVCAR-5 ovarian): 3130 nM
- GI50 (NCI-H23 lung): 1800 nM
- TGI (NCI-H23 lung): 3570 nM
- GI50 (SF-539 CNS): 1690 nM
- TGI (SF-539 CNS): 3170 nM
- GI50 (MDA-MB-435): 1670 nM
- TGI (MDA-MB-435): 3100 nM
- GI50 (NCI-H226 lung): 2180 nM
- TGI (NCI-H226 lung): 4990 nM
- GI50 (ACHN renal): 1750 nM
- TGI (ACHN renal): 3140 nM
- GI50 (OVCAR-3 ovarian): 1760 nM
- TGI (OVCAR-3 ovarian): 3240 nM
- GI50 (MDA-MB-231 breast): 1530 nM
- TGI (MDA-MB-231 breast): 3040 nM

SMILES: c1ccc(CSCCNCCN(CCNCCSCc2ccccc2)CCNCCSCc2ccccc2)cc1
- GI50 (HCT-116 colon): 183 nM
- TGI (HCT-116 colon): 340 nM
- GI50 (CAKI-1 renal): 3350 nM
- TGI (CAKI-1 renal): 14300 nM
- GI50 (PC-3 prostate): 1660 nM
- TGI (PC-3 prostate): 3210 nM
- GI50 (UACC-62 melanoma): 1770 nM
- TGI (UACC-62 melanoma): 3160 nM
- GI50 (786-0 renal): 1530 nM
- TGI (786-0 renal): 2940 nM
- GI50 (UO-31 renal): 1780 nM
- TGI (UO-31 renal): 3230 nM
- GI50 (BT-549 breast): 1800 nM
- TGI (BT-549 breast): 3220 nM
- GI50 (UACC-257 melanoma): 1770 nM
- TGI (UACC-257 melanoma): 3310 nM
- GI50 (SN12C renal): 1440 nM
- TGI (SN12C renal): 2770 nM
- GI50 (MALME-3M melanoma): 1840 nM
- TGI (MALME-3M melanoma): 3410 nM
- GI50 (MCF7 breast): 363 nM
- TGI (MCF7 breast): 803 nM
- GI50 (KM12 colon): 1100 nM
- TGI (KM12 colon): 2410 nM
- GI50 (HOP-62 NSCLC): 1490 nM
- TGI (HOP-62 NSCLC): 2830 nM
- GI50 (TK-10 renal): 1590 nM
- TGI (TK-10 renal): 2940 nM
- GI50 (SK-MEL-5 melanoma): 1720 nM
- TGI (SK-MEL-5 melanoma): 3120 nM
- GI50 (SF-295 CNS): 4170 nM
- TGI (SF-295 CNS): 20500 nM
- GI50 (OVCAR-5 ovarian): 1760 nM
- TGI (OVCAR-5 ovarian): 3190 nM
- GI50 (U251 CNS): 1520 nM
- TGI (U251 CNS): 2850 nM
- GI50 (SW-620 colon): 1780 nM
- TGI (SW-620 colon): 3210 nM
- GI50 (SK-OV-3 ovarian): 1940 nM
- TGI (SK-OV-3 ovarian): 3430 nM
- GI50 (SF-539 CNS): 2140 nM
- TGI (SF-539 CNS): 3580 nM
- GI50 (MDA-MB-435): 5370 nM
- TGI (MDA-MB-435): 18900 nM
- GI50 (NCI-H226 lung): 1780 nM
- TGI (NCI-H226 lung): 3280 nM
- GI50 (SK-MEL-2 melanoma): 1600 nM
- TGI (SK-MEL-2 melanoma): 3110 nM
- GI50 (SF-268 CNS): 1530 nM
- TGI (SF-268 CNS): 2960 nM
- GI50 (NCI-H460 lung): 1370 nM
- TGI (NCI-H460 lung): 2710 nM
- GI50 (RPMI-8226 leukemia): 337 nM
- TGI (RPMI-8226 leukemia): 1030 nM
- GI50 (OVCAR-3 ovarian): 4230 nM
- TGI (OVCAR-3 ovarian): 18300 nM
- GI50 (MDA-MB-231 breast): 1560 nM
- TGI (MDA-MB-231 breast): 2940 nM
- GI50 (M14 melanoma): 1310 nM
- TGI (M14 melanoma): 2650 nM
- GI50 (CCRF-CEM leukemia): 1540 nM
- TGI (CCRF-CEM leukemia): 3060 nM
- GI50 (OVCAR-8 ovarian): 1570 nM
- TGI (OVCAR-8 ovarian): 3020 nM
